For one test, the target named is T1, Bcl-xL (Homo sapiens, UniProt Q07817).
T1 construct: made in house
Briefly: Alpha Screen Bcl-xL binding assay, competition with Bim26-mer. The note with it: values listed in the order of Table 1; read-out: Alphascreen results (IC50). On the procedure: The measurement of competition of compounds of the invention with Bim26-mer for a Bcl-2 family protein binding site using an Alpha Screen Bcl-xL Binding Assay:
The BH3 proteins ALPHASCREEN™ assay was used to identify active small molecules Bcl-2 family protein screen. e.g., Bcl-xL, hmMcl-1 screen. To determine an accurate estimation of the IC50, the compounds were routinely tested at starting concentrations, 100 μM and/or 1 μM and serially titrated 3 fold over 11 dilutions.
The beads come in close proximity when the protein and the peptides interact. Donor beads contain a photosensitiser that converts oxygen to an excited form of O2 at an excitation of 680 nm. Energy is transformed from the singlet oxygen and reacts with chemiluminescers on the acceptor bead, resulting in light emission at 520-620 nm. […] With this information, the IC50 of each compound was calculated
GST-Bcl-xL, GST-hmMcl-1 and biotinylated GST proteins were prepared in-house and were stored as stock solutions at −80° C. The biotinylated-Bak, and biotinylated-Bim peptides were purchased from Auspep and were stored as 500 μM stock solutions in 100% DMSO at −80° C. The ALPHASCREEN™ GST (Glutathione-S-Transferase) Detection Kit was obtained from Perkin Elmer Lifesciences (Cat #6760603R). The Proxiplates, white 384 well flat-Bottom plates were purchased from Interpath Services, Melbourne (Cat #784075). The seals to cover the plates were purchased from Proscience. Melbourne (Cat#784075). DMSO was purchased from AnalaR. The 384 deep well plates and the Polypropylene 50 μL, V bottom polypropylene compound plates were purchased from Matrical.
Compounds of the invention were prepared as 10 mM stocks with 100% DMSO on the day prior to performing the assay. […] To achieve a final compound concentration of 1 μM, in a separate matrical plate, 28 μL of 100% DMSO and 2 μL of 10 mM compound was added to a well, mixed well. 2 μL of this solution was taken and added to 38 μL of 100% DMSO. 20 μL of this solution was added to the test matrical plate. Several control compounds were included in the test plates. For the control wells 15 μL 100% DMSO only was added to the appropriate wells of each plate. The compound plates were then serially diluted 2 fold using the MiniTrak. Once titrations were complete, the compound plate was immediately covered with a foil seal to prevent evaporation.
The assay and bead buffers were prepared fresh. Each titrated compound plate was assayed in duplicate. The following volumes were sufficient to run 12 Proxiplates (4 assay plates run in duplicate in each of Bclxl, hmMcl and counter assays)
Protein and Peptide Preparation; and Assay Performance • 1. The assay and bead buffers were used to prepare the acceptor and donor solutions. ALPHASCREEN™ beads are light sensitive and therefore prepared in a darkened room. 2.5 μL of beads were added per 1 mL of buffer. • 2. The volume of protein or peptide to add was calculated using the following formula:
[formula] • C1=Final Concentration of protein/peptide • C2=Stock Concentration of protein/peptide • V1=Total Volume of Acceptor/Donor Solution • V2=Volume of stock protein/Peptide to add to Acceptor/Donor solution • 3. The assay components were prepared as separate Acceptor and Donor Solutions. The Acceptor Solution contained Acceptor heads and target protein, while the Donor Solution contained Donor beads and biotinylated peptide.
• 4. After the solutions were prepared, they were left to incubate for 30 minutes at room temperature to allow the beads to bind to the protein and the peptide. • 5. 50 μL of Bcl-xL solution, 50 μL of hmMcl-1 solution and 50 µL of biotinylated-GST were added into separate deep wells on an assay plate. A control […]. Assay/Bead buffer was added separate well plates (no protein). • 6.

For test [1], the system named is Mcl-1-/- mouse embryonic fibroblasts (MEF). Description: Cell viability assay for Mcl-1-/- mouse embryonic fibroblasts (CellTiter-Glo). The note with it: Fibroblast, 1% Fetal Bovine Serum, read-out: MEF Mcl-1-/- KO cell viability results (EC50). Type of test: cell-based. The text has this:
a. Cell Viability Assay for Mcl-1^−/− Mouse Embryonic Fibroblasts (MEF):
Neutralization of both […] and Mcl-1 anti-apoptotic proteins in normal cells is required before a cell undergoes apoptosis via the downstream Bax/Bak pathway See, Chen. L. et al. Mol. Cell (2005) 17, 393-403; Willis, S. N. et al. Genes Dev. (2005) 19, 1294-1305. A compound that only targets Bcl-xL should not affect normal cells, but could kill certain cancer cells if they rely more on Bcl-xL and less on other anti-apoptotic proteins, e.g. Mcl-1, for survival. To mirror this, compounds of the invention were tested for its effect on survival of wild type (wt) mouse embryo fibroblasts (MEFs), Bax/Bak double knockout (BB DKO) MEFs, MEFs that expressed Noxa, and MEFs that expressed Bad. Noxa specifically neutralizes Mcl-1. […] MEFs that express Noxa mirror cancer cell types that are reliant on Bcl-xL for survival and should be much more sensitive to killing by a Bcl-xL targeting compound than MEFs where both Bcl-xL and Mcl-1 are protective.
In this assay, Mcl-1^(−/−) cells were used to confirm that cell apoptosis in the presence of BH3 mimetic small molecules was due to predominantly Bcl-xL inactivation. This inactivation leaves Bax/Bak unconstrained and results in apoptosis. The […]-GLO Luminescent Cell Viability Assay is a homogeneous method of determining the number of viable cells in culture based on quantitation of the ATP present. The amount of ATP correlates with the presence of metabolically active cells such that following cell lysis the amount of ATP present is proportional to the amount of luminescence measured.
Mcl-1^(−/−) mouse embryonic fibroblasts (MEFs) are an adherent cell line prepared in house. MEFs were grown in Iwaki 75 cm^2 tissue culture flasks (cat #3123-075) with FMA media which consists of: • 89% DME Kelso • 10% heat-inactivated foetal calf serum (FCS) (Hyclone cat #SH30396.03) • 1% 10 mM asparagine (Fluka cat #11149) • 275 μl of a 1:2000 dilution of 2-mercaptoethanol is added to the final 500 ml volume of FMA (Sigma cat #M7522; diluted in MT-PBS)
FMA was stored at 4° C. and used at 37° C. MEFs were cultured in FMA media and harvested in MT-PBS and trypsin. For MEF cell viability assays, cells were seeded separately in plates with 10% FCS-FMA and 1% FCS-FMA. […]
Automated Systems that can be used in this assay include: 1) Multidrop—The MULTIDROP 384 (ThermoLabsystems) dispenser was used to dispense cells aseptically into the assay plates: 2) MiniTrak—The […] system from Perkin Elmer was used for titration of the compound plates; 3) Zymark—The ZYMARK SCICLONE ALH3000 System with 100 nL pintool head was used for compound addition to the cells; 4) EnVision—The ENVISION plate reader was used to measure the viability via the detection of the luminescence. […]
A general note: ATP-based viability assays read luminescence as a measure of living cells.

T1 sequence (Q07817 whole entry, species assumed): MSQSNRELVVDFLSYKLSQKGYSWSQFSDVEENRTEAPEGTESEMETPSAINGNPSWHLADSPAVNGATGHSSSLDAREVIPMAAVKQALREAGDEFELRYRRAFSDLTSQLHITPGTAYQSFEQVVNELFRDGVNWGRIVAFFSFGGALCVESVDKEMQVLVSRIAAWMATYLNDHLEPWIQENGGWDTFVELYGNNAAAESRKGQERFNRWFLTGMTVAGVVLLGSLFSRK

Regarding `O=C(O)c1nc(-c2ccc3c(c2)N(C(=O)Nc2nc4ccccc4s2)CCC3)sc1/C=C/c1ccccc1` [Example 74, (E)-2-(1-(benzo[d]thiazol-2-ylcarbamoyl)-1,2,3,4-tetrahydroquinolin-7-yl)-5-styrythiazole-4-carboxylic acid], on Bcl-xL, the IC50 (as a rule, the concentration that gives 50% inhibition) was 3 nM. Moreover, the EC50 in test [1] worked out at 60 nM.

As for `CC(C)Oc1ccc(-c2sc(-c3ccc4c(c3)N(C(=O)Nc3nc5ccccc5s3)CCC4)nc2C(=O)O)cc1` [Example 79, 2-(1-(benzo[d]thiazol-2-ylcarbamoyl)-1,2,3,4-tetrahydroquinolin-7-yl)-5-(4-isopropoxyphenyl)thiazole-4-carboxylic acid], the half-inhibitory concentration (IC50) on Bcl-xL turned out to be 6 nM. Further, the EC50 in test [1] is 210 nM.

As to `O=C(O)c1nc(-c2ccc3c(c2)N(C(=O)Nc2nc4ccccc4s2)CCC3)ccc1OCCCc1ccccc1` [Example 90, 6-(1-(benzo[d]thiazol-2-ylcarbamoyl)-1,2,3,4-tetrahydroquinolin-7-yl)-3-(3-phenylpropoxy)picolinic acid], on Bcl-xL, the IC50 stood at 10 nM. Moreover, the EC50 in test [1] is 590 nM.

The record behind these values is US9067928B2 (Genentech, Inc., priority 2008, dated 2015).
